In US11866720B2, “Transgenic or non-transgenic plants with mutated protoporphyrinogen oxidase having increased tolerance to herbicides” (priority 2013, dated 2024):
Values joined by “and” are separate entries in the source; they are usually repeats but may differ in a detail not shown here. Equal entries are not always repeated.

System: transgenic Arabidopsis thaliana plants expressing wildtype or mutated PPO
Experiment: Greenhouse tolerance test of transgenic T1 Arabidopsis plants (phytotox / injury rating 0-100)
Type: in vivo
Details: for Plant growth injury, scale 0-100, 100 is 100% damage: +1% MSO
[1] = non-transgenic Arabidopsis, POST, 7 DAT, 75 g ai/ha
[2] = non-transgenic Arabidopsis, POST, 7 DAT, 150 g ai/ha
[3] = non-transgenic Arabidopsis, POST, 7 DAT, 300 g ai/ha
[4] = Ø F420V 1, POST, 7 DAT, 75 g ai/ha
[5] = Ø F420V 1, POST, 7 DAT, 150 g ai/ha
[6] = Ø F420V 1, POST, 7 DAT, 300 g ai/ha
[7] = Ø F420V 2, POST, 7 DAT, 75 g ai/ha
[8] = Ø F420V 2, POST, 7 DAT, 150 g ai/ha
[9] = Ø F420V 2, POST, 7 DAT, 300 g ai/ha
[10] = Ø F420V 3, POST, 7 DAT, 75 g ai/ha
[11] = Ø F420V 3, POST, 7 DAT, 150 g ai/ha
[12] = Ø F420V 3, POST, 7 DAT, 300 g ai/ha
[13] = Ø R128A, F420V 1, POST, 7 DAT, 75 g ai/ha
[14] = Ø R128A, F420V 1, POST, 7 DAT, 150 g ai/ha
[15] = Ø R128A, F420V 1, POST, 7 DAT, 300 g ai/ha
[16] = Ø R128A, F420V 1 to 3, 75 g ai/ha
[17] = Ø R128A, F420V 1 to 3, 150 g ai/ha
[18] = Ø R128A, F420V 1 to 3, 300 g ai/ha
[19] = Ø R128A, F420V 2, POST, 7 DAT, 75 g ai/ha
[20] = Ø R128A, F420V 2, POST, 7 DAT, 150 g ai/ha
[21] = Ø R128A, F420V 2, POST, 7 DAT, 300 g ai/ha
[22] = Ø R128A, F420V 3, POST, 7 DAT, 75 g ai/ha
[23] = Ø R128A, F420V 3, POST, 7 DAT, 150 g ai/ha
[24] = Ø R128A, F420V 3, POST, 7 DAT, 300 g ai/ha
[25] = Ø non-transgenic Arabidopsis, POST, 7 DAT, 75 g ai/ha
[26] = Ø non-transgenic Arabidopsis, POST, 7 DAT, 150 g ai/ha
[27] = Ø non-transgenic Arabidopsis, POST, 7 DAT, 300 g ai/ha

Row | SMILES | Plant growth injury, scale 0-100, 100 is 100% damage [1] | Plant growth injury, scale 0-100, 100 is 100% damage [2] | Plant growth injury, scale 0-100, 100 is 100% damage [3] | Plant growth injury, scale 0-100, 100 is 100% damage [4] | Plant growth injury, scale 0-100, 100 is 100% damage [5] | Plant growth injury, scale 0-100, 100 is 100% damage [6] | Plant growth injury, scale 0-100, 100 is 100% damage (Ø F420V 1 to 3, 75 g ai/ha) | Plant growth injury, scale 0-100, 100 is 100% damage (Ø F420V 1 to 3, 150 g ai/ha) | Plant growth injury, scale 0-100, 100 is 100% damage (Ø F420V 1 to 3, 300 g ai/ha) | Plant growth injury, scale 0-100, 100 is 100% damage [7] | Plant growth injury, scale 0-100, 100 is 100% damage [8] | Plant growth injury, scale 0-100, 100 is 100% damage [9] | Plant growth injury, scale 0-100, 100 is 100% damage [10] | Plant growth injury, scale 0-100, 100 is 100% damage [11] | Plant growth injury, scale 0-100, 100 is 100% damage [12] | Plant growth injury, scale 0-100, 100 is 100% damage [13] | Plant growth injury, scale 0-100, 100 is 100% damage [14] | Plant growth injury, scale 0-100, 100 is 100% damage [15] | Plant growth injury, scale 0-100, 100 is 100% damage [16] | Plant growth injury, scale 0-100, 100 is 100% damage [17] | other results
1 | C#CCN1C(=O)C(F)(F)Oc2cc(F)c(-n3c(=O)n(C)c(=S)n(C)c3=O)cc21 | 98% | 98% | 98% | 17% | 28% | 36% | 11% | 17% | 26% | 9% | 11% | 22% | 8% | 12% | 22% | 18% | 23% | 26% | 18% | 24% | Injury Rating 0-100% (0 = no injury, 100 = total control) (Line 2, F420V, SEQ_ID 2 & 4, 19 DAT, 150 g/Ha + 1% MSO): 90% and 85% and 45%; Plant growth injury, scale 0-100, 100 is 100% damage [18]: 32%; Plant growth injury, scale 0-100, 100 is 100% damage [19]: 24%; Plant growth injury, scale 0-100, 100 is 100% damage [20]: 20%; Plant growth injury, scale 0-100, 100 is 100% damage [21]: 33%; Plant growth injury, scale 0-100, 100 is 100% damage [22]: 11%; Plant growth injury, scale 0-100, 100 is 100% damage [23]: 30%; Plant growth injury, scale 0-100, 100 is 100% damage [24]: 36%; Plant growth injury, scale 0-100, 100 is 100% damage [25]: 98%; Plant growth injury, scale 0-100, 100 is 100% damage [26]: 98%; Plant growth injury, scale 0-100, 100 is 100% damage [27]: 98%
2 | CC(C)N(C)S(=O)(=O)NC(=O)c1cc(-n2c(=O)cc(C(F)(F)F)n(C)c2=O)c(F)cc1Cl [Saflufenacil, saflufenacil] | 98% | 98% | 98% | 39% | 60% | 77% | 42% | 60% | 76% | 36% | 55% | 72% | 51% | 66% | 78% | 16% | 18% | 22% | 18% | 20% | Plant growth injury, scale 0-100, 100 is 100% damage [18]: 21%; Plant growth injury, scale 0-100, 100 is 100% damage [19]: 22%; Plant growth injury, scale 0-100, 100 is 100% damage [20]: 24%; Plant growth injury, scale 0-100, 100 is 100% damage [21]: 22%; Plant growth injury, scale 0-100, 100 is 100% damage [22]: 18%; Plant growth injury, scale 0-100, 100 is 100% damage [23]: 18%; Plant growth injury, scale 0-100, 100 is 100% damage [24]: 19%; Plant growth injury, scale 0-100, 100 is 100% damage [25]: 98%; Plant growth injury, scale 0-100, 100 is 100% damage [26]: 98%; Plant growth injury, scale 0-100, 100 is 100% damage [27]: 98%
